# Source: patent US4316884A, “Sustained release pharmaceutical formulation” (Adria Laboratories, Inc., priority 1980, dated 1982)
# Entries after “also recorded” stand apart in the source; their conditions may differ.
# Tests used:
# [1] = humans; cited from earlier work
# [2] = in vivo; cited from earlier work
# [3] = plasma levels of indoprofen in mice after oral gavage (HPLC-UV); type: in vivo
# Experimental: Plasma levels of indoprofen are determined in adult mice (22-25 g.) following oral gavage of either pure drug or microencapsulated drug. Drugs are administered at 1% of the body weight. Each treatment group in a single experiment contains four animals and the data is pooled for evaluation. Animals are sacrificed by decapitation. Blood from each treatment group is collected and pooled in heparinized tubes. Plasma is collected and frozen for assay of indoprofen concentration. Plasma indoprofen concentration is determined by high pressure liquid chromatography fitted with a UV detector; concentration is determined at max. 284 nm.
# Plasma Level (μg/ml) of Indoprofen in Mice,
# Administered Orally as a Suspension*
# *Aqueous suspension containing 0.5% methylcellulose and 0.06% surface
# ^a The apparent rate of elimination, Ke is calculated using a on
# compartment open model system as described by J. G. Wagner
# Biopharmaceutics and Relevant Pharmacokinetics, page 180, Hamilton Press
# [4] = clinical analgesic/anti-inflammatory efficacy and side effects in man; type: in vivo
# Experimental: The analgesic dose for indoprofen in man is low in comparison to the anti-inflammatory dose, i.e., in the order of 100 to 600 mg. per day.
# However, the dose necessary for indoprofen to exert an anti-inflammatory activity is higher than the analgesic dose, i.e., in the order of 800 to 1200 mg. per day. […] At this dose gastrointestinal ulceration and other side effects are […].
# [5] = acidic pH of the stomach, unionized; cited from earlier work
# [6] = human, in vivo
structure (smiles),measurement,setting,value
"CC(C(=O)O)c1ccc(N2Cc3ccccc3C2=O)cc1 (stereo not drawn) [indoprofen, alpha-[4-(1-oxo-2-isoindolinyl)-phenyl]propionic acid]",plasma half-life (t 1/2),[1],2.1 to 5.4 h
same,anti-inflammatory and analgesic properties,[2],excellent anti-inflammatory and analgesic properties
same,half-life,"[3]; mouse, plasma, oral suspension",324 min
same,concentration at 2 h,"[3]; mouse, plasma, oral suspension, 2 hours, mean and standard error, read-out: Plasma Level of Indoprofen",2490 ± 450 ng/mL
same,concentration at 4 h,"[3]; mouse, plasma, oral suspension, 4 hours, mean and standard error, read-out: Plasma Level of Indoprofen",1620 ± 150 ng/mL
same,concentration at 8 h,"[3]; mouse, plasma, oral suspension, 8 hours, mean and standard error, read-out: Plasma Level of Indoprofen",890 ± 240 ng/mL
same,concentration at 16 h,"[3]; mouse, plasma, oral suspension, 16 hours, mean and standard error, read-out: Plasma Level of Indoprofen",490 ± 170 ng/mL
same,concentration at 32 h,"[3]; mouse, plasma, oral suspension, 32 hours, mean and standard error, read-out: Plasma Level of Indoprofen",430 ng/mL
same,k el,"[3]; mouse, plasma, oral suspension, one compartment open model, read-out: Ke, apparent rate of elimination (converted)",3.54e-05 s⁻¹
same,AUC,"[3]; mouse, plasma, oral, 1% of the body weight, read-out: area under the plasma curve",24500 ng·h/mL
same,Cmax,"[3]; mouse, plasma, oral, 1% of the body weight, read-out: plasma peak height",2500 ng/mL
same,"bioavailability, pure drug versus microencapsulated form",[3]; oral,bioequivalent; also recorded: equivalent bioavailability
same,"plasma peak height, pure drug relative to microencapsulated drug","[3]; oral, listed as pure drug",two times that of microencapsulated form; also recorded: two times that of the microencapsulated drug
same,safety in prolonged therapy,"[4]; clinical studies, above 800 mg., especially 1200 mg., per day",has not been shown to be safe for prolonged therapy
same,safety classification,"[4]; clinical studies, up to 800 mg. per day",safe dose
same,effectiveness in osteoarthritis,"[4]; man, 800 mg. per day",effective in the treatment of osteoarthritis
same,gastrointestinal ulceration and other side effects,"[4]; man, 800 mg. per day",minimal
same,effectiveness in rheumatoid arthritis,"[4]; man, 1200 mg. per day",effective in the treatment of rheumatoid arthritis
same,gastrointestinal ulceration and other side effects,"[4]; man, 1200 mg. per day",the incidence of gastrointestinal ulceration and other side effects are recognized
same,analgesic effect,"[4]; man, 100 to 600 mg. per day",maximum analgesic effect
same,side effects,"[4]; man, 100 to 600 mg. per day",minimal or negligible side effects
same,solubility,[5],poorly soluble
same,plasma peak height and bioavailability (total area under the plasma curve) as dose is increased,[6],increases in a linear fashion
